Data: patent US20220387457A1 (Qlaris Bio, Inc., priority 2020, published 2022)
Where two headings read alike, the source gives them in different places.

Key:
[1] = Toxicokinetics after escalating intravenous doses of CKLP1 in beagles; format: in vivo, beagle dog; conditions: beagle, dog, in vivo, iv
Description: Two beagles (one male and one female) were intravenously injected with escalating doses of CKPL1 (0.05 mg/kg, 0.5 mg/kg, 1.5 mg/kg, 3 mg/kg, and 5 mg/kg) to assess the toxicity of CKLP1. The injection was done through the cephalic vein and CKLP1 was administered in a phosphate buffered saline solution ((0.096% sodium phosphate dibasic, 0.089% sodium dihydrogen orthophosphate monohydrate, 0.83% sodium chloride) pH 6.5±0.1 in sterile water for injection USP). The dosing schedule is shown below in Table 3.
The following parameters and endpoints were evaluated: mortality, clinical observations, body and organ weights, and food consumption. Bioanalytical samples for toxicokinetic parameters (for both CKLP1 and leveromakalim) were collected after each dose level (days 1, 3, 8, 10, and 14) at predose, 1, 3, 6, 8, and 24 hours postdose. Animals were released from the study after completion of the bioanalytical sample collection schedule.
Toxicokinetics (TK) were determined based on the individual exposures for each animal on each sampled study day (days 1, 3, 8, 10, and 14). […] Predose samples had no quantifiable exposure in any animal on any day, with the exception of the female dog on day 10. The predose concentration for the female dog on day 10 was excluded from the TK analysis in order to allow for estimation of the IV C0.

[2] = Concentration of CKLP1 and levcromakalim in ocular and systemic tissues of hound dogs; format: in vivo, hound dog; conditions: for concentration at 23 h: hound, dog, 23 hours after last dose
Description: After blood collection for pharmacokinetic studies, bilateral ocular treatment with CKLP1 (10 mM) continued in the hound dogs for 4-5 additional days.
For ocular tissue collection, eyes were enucleated and aqueous humor, vitreous humor, trabecular meshwork, optic nerve, ciliary body, iris, retina and cornea were isolated and stored at −80° C. While collecting tissues during necropsy, portions of heart, kidney, lung, brain, liver and skeletal muscle were immediately frozen for pharmacodynamics analysis, while the remaining tissue samples were immediately fixed in 10% neutral buffered formalin.
Immediately prior to analysis, tissues were thawed and their weight was measured. PBS was added at double the tissue volume homogenized in a rotor stator homogenizer for 30 seconds. […] Detection was accomplished using positive electrospray ionization with multiple-reaction monitoring (MRM). […] Data were acquired and analyzed using Waters MassLynx v4.1 software.

CC1(C)Oc2ccc(C#N)cc2[C@@H](N2CCCC2=O)[C@@H]1O [Levcromakalim, levcromakalim, reference compound] showed an AUC(0-t) ([1]; both sexes, 3 mg/kg, read-out: AUCTlast at MTD, sex-combined) of 431 ng·h/mL, a Cmax ([1]; both sexes, 3 mg/kg, read-out: Cmax at MTD, sex-combined) of 35.5 ng/mL and an AUCTlast ([1]; female, 0.5 mg/kg) of 81.3 ng·h/mL. For the same compound, the T1/2 ([1]; female, 0.5 mg/kg) was 10.3 h, the “AUC(0-inf)” value ([1]; female, 1.5 mg/kg) was 272 ng·h/mL and the AUCTlast ([1]; female, 1.5 mg/kg) was 241 ng·h/mL. It also gave a Cmax ([1]; female, 1.5 mg/kg) of 15.6 ng/mL, a T1/2 ([1]; female, 1.5 mg/kg) of 7.58 h and a Tmax ([1]; female, 1.5 mg/kg) of 3.00 h. For the same compound, the “AUC(0-inf)” value ([1]; female, 3 mg/kg) was 404 ng·h/mL, the AUCTlast ([1]; female, 3 mg/kg) was 386 ng·h/mL and the Cmax ([1]; female, 3 mg/kg) was 28.3 ng/mL. For the same compound, the T1/2 ([1]; female, 3 mg/kg) was 5.07 h, the Tmax ([1]; female, 3 mg/kg) was 6.00 h and the AUCTlast ([1]; female, 5 mg/kg) was 1040 ng·h/mL. It also gave a T1/2 ([1]; female, 5 mg/kg) of 7.82 h, an AUCTlast ([1]; male, 0.05 mg/kg) of 5.04 ng·h/mL and a T1/2 ([1]; male, 0.05 mg/kg) of 9.66 h. The AUCTlast ([1]; male, 0.5 mg/kg) was 45.5 ng·h/mL, the T1/2 ([1]; male, 0.5 mg/kg) was 6.89 h and the “AUC(0-inf)” value ([1]; male, 1.5 mg/kg) was 192 ng·h/mL. The AUCTlast ([1]; male, 1.5 mg/kg) was 183 ng·h/mL, the Cmax ([1]; male, 1.5 mg/kg) was 18.0 ng/mL and the T1/2 ([1]; male, 1.5 mg/kg) was 5.27 h. The Tmax ([1]; male, 1.5 mg/kg) was 1.00 h, the “AUC(0-inf)” value ([1]; male, 3 mg/kg) was 518 ng·h/mL and the AUCTlast ([1]; male, 3 mg/kg) was 476 ng·h/mL. It also gave a Cmax ([1]; male, 3 mg/kg) of 42.7 ng/mL, a T1/2 ([1]; male, 3 mg/kg) of 6.48 h and a Tmax ([1]; male, 3 mg/kg) of 1.00 h. For the same compound, the AUCTlast ([1]; male, 5 mg/kg) was 741 ng·h/mL, the T1/2 ([1]; male, 5 mg/kg) was 7.67 h and the concentration at 23 h ([2]; aqueous humor, topical 10 mM CKLP1 12-13 days, two animals, read-out: concentration in aqueous humor) was 1.1 ± 1.5 ng/mL. It also gave a concentration at 23 h ([2]; ciliary body, topical 10 mM CKLP1 12-13 days, two animals, read-out: concentration in ciliary body) of under 1 ng/g, a concentration at 23 h ([2]; cornea, topical 10 mM CKLP1 12-13 days, two animals, read-out: concentration in cornea) of 1.4 ± 0.3 ng/g and a concentration at 23 h ([2]; heart, topical 10 mM CKLP1 12-13 days, read-out: concentration in heart) of 0.9 ± 0.8 ng/g. For the same compound, the concentration at 23 h ([2]; iris, topical 10 mM CKLP1 12-13 days, two animals, read-out: concentration in iris) was under 1 ng/g, the concentration at 23 h ([2]; kidney, topical 10 mM CKLP1 12-13 days, read-out: concentration in kidney) was 0.8 ± 1.2 ng/g and the concentration at 23 h ([2]; lung, topical 10 mM CKLP1 12-13 days, read-out: concentration in lung) was 0.3 ± 0.4 ng/g. For the same compound, the concentration at 23 h ([2]; optic nerve, topical 10 mM CKLP1 once daily 12-13 days, two animals, read-out: concentration in optic nerve) was under 1 ng/g, the concentration at 23 h ([2]; retina, topical 10 mM CKLP1 12-13 days, two animals, read-out: concentration in retina) was under 1 ng/g and the concentration at 23 h ([2]; trabecular meshwork, topical 10 mM CKLP1 12-13 days, two animals, read-out: concentration in trabecular meshwork) was 2 ± 0.5 ng/g. The concentration at 23 h ([2]; vitreous humor, topical 10 mM CKLP1 12-13 days, two animals, read-out: concentration in vitreous humor) was under 1 ng/g and the concentration in urine ([2]; topical 10 mM CKLP1 12-13 days) was 3.7 ± 4.5 ng/mL.
